# Measurements from patent US20080103089A1, “Compounds, Compositions, Formulations and Process for Preparation Thereof and Method of Treatment and Management of Acidity and Related Disorders” (priority 2004, published 2008).
# Columns and labels:
# Type in all cases: physicochemical
# [1] = Titration of Glutamic acid in water with NaOH
# From the text: About one milliequivalent of NaOH was neutralized per milliequivalent of Glutamic acid in water to raise the pH of its aqueous solution from 2.9 to about 5.
# [2] = Titration of Sodium Glutamate solution
# From the text: Crystalline Sodium Glutamate gave solution of pH 6.7. It took, per milliequivalent of Sodium Glutamate used, little less than 1 milliequivalent of HCl to bring the pH from 6.7 down to 3 and about 1 milliequivalent of […] the pH from 6.7 to 10.8. Here, the crystalline Sodium Glutamate solution of pH 6.7 represents an intermediate form of alkaline protein.
# [3] = Determination of Acid Neutralization Capacity (ANC) by titration against 1N HCl
# Experimental: About 20 ml of 1N NaOH was added to about or less than 1 gram dry weight of the active ingredient (Protein isolate or protein rich extract) with about 10 ml water content. In cold treatment, the mixture was kept at room temperature overnight until the sedimented coagulum was seen to have been dispersed evenly in a solution. In a hot treatment, the mixture was kept in an oven at 80 degrees Celsius, volume restored to 30 ml by addition of distilled water and titrated after various stages of degradation after the period of treatment. Alkali remaining in excess was either neutralized by titrating against 1N HCl until pH dropped to 10.8 or by dialyzing the mixture using gelatin membrane against 700 milliliter portions of distilled water three to four times until the dialysate contained little alkalinity.
# Acid Neutralization Capacity was noted as milliequivalents of HCl neutralized to maintain the pH at 3 for two hours and expressed as per gram dry weight of the active antacid ingredient or per dose of the antacid composition containing the active ingredient. Total volume of the reactants were adjusted to 30 ml or 40 ml and titrated against 1N HCl and pH was noted after each small dropwise addition. The pH was measured by a pH meter.
# In titration of distilled water, it was observed that pH of the water raised rapidly to 10.8 with addition of a single drop. Similarly, while titrating 1N NaOH against 1N HCl, fall in pH from 12.2 to 10.8 was gradual. However, thereafter, just one drop was sufficient to lower the pH to neutral. Thus, it was clear that acid neutralized by the products within the pH range of 3 to 10.8 was due to Acid Neutralization Capacity when solutions of antacid active ingredients covered in the examples were titrated for determination of their ANC.
# When alkali treated mixtures were titrated, acid required to bring down the pH to 10.8 was considered as acid required to neutralize the unreacted NaOH. Acid required to neutralize pH from 10.8 up to pH 3 was taken for calculation of ANC.
# Whenever desired, the alkali treated mixture was dialysed through gelatin membrane against about 700 milliliters of distilled water each time three to four times. Significant quantity of alkalinity appeared in first two dialyses in first two hours. Third dialysis, usually done for several hours overnight usually contained very little of alkalinity in the range of pH 10.8 and above.
molecule,measurement,setting,value
N[C@@H](CCC(=O)O)C(=O)O [Glutamic acid],NaOH consumed,[1]; from pH 5 to 10.9,about 1.2 milliequivalents per milliequi
same,pH of aqueous solution,"[1]; in water, before titration",2.9
same,NaOH neutralized,[1]; to raise pH from 2.9 to about 5,About one
N[C@@H](CCC(=O)[O-])C(=O)[O-].[Na+].[Na+] [Sodium Glutamate],pH of solution,[2]; crystalline Sodium Glutamate in solution,6.7
same,HCl to bring the pH down,[2]; pH from 6.7 down to 3,less than 1 milliequivalent per milliequiv
same,HCl to raise the pH,[2]; pH from 6.7 to 10.8,about 1 milliequivalent per milliequiv
Casein,ANC,"[3]; after cold alkali treatment (1N NaOH, room temperature overnight), pH 10.8 to 3",1.5 milliequivalents of HCl per gr
same,ANC,[3]; after hot alkali treatment (80 degrees Celsius) of 2 days,4.88 milliequivalents of HCl per gr
same,ANC,[3]; after hot alkali treatment (80 degrees Celsius) of 6 days,8 milliequivalents of HCl per gr
same,ANC,"[3]; untreated protein isolate, HCl neutralized to maintain pH 3 for two hours",0.12 per gram
